The text below walks through data of patent US8691725B2, “Synergistic combination of a glyphosate compound and TBZ” (Dow Global Technologies LLC, priority 2010, dated 2014).

Usually % Inhibition stands for the share of the control response that was lost under treatment.

The conditions of data set [1]: cited from earlier work.
Data set [2] relates to Chlorella sp., Chlorella kessleri, and Nostoc commune. As to the kind of experiment: Algal efficacy on dry paint film (Modified ASTM 5589), pool Cs + Ck + Nc (Ch-No). It counts as cell-based. The protocol:
(§1) Each sample was tested in duplicate.
(§2) In this synergy study, three pool of mixed algae were prepared as the test inoculum, Gloeocapsa sp. and Oscillatoria sp. a mix of cyanobacteria grown on BG-11 media; Chlorella sp., Chlorella kessleri, and Nostoc commune are unicellular chlorphytes that were mixed and grown on Bold media; Trentepohlia aurea, Tretepohlia odorata, and Calotrix parientina are filamentous algae that were mixed and grown on Bold media.
(§3) The plates were incubated at room temp (25° C.-26° C.) with cyclic exposure to light (OTT-Lite model # OTL4012P, 40 Watt, 26 KLumen) and dark phases, for a period of four weeks. The total area covered was evaluated at the end of each week according to percent area covered in 5% increments.
(§4) The SI is calculated based on F. C. Kull et.
(§5) SI value of <1 in the formula indicates a synergism of the blended biocides exists.
(§6) NE=no end point at the concentration tested that will meet the percent inhibition criteria set in each SI calculation.

Data set [3] deals with Trentepohlia aurea, Tretepohlia odorata, and Calotrix parientina. The data set can be described thus: Algal efficacy on dry paint film (Modified ASTM 5589), pool Cp + To + Ta (Cal-Tre). It counts as cell-based. The protocol:
as §1, §2, §3, §4, §5, §6

In data set [4] the test system is Gloeocapsa sp. and Oscillatoria sp. The data set can be described thus: Algal efficacy on dry paint film (Modified ASTM 5589), pool Gs + Os (Os-Gl). The format is cell-based. The protocol:
as §1, §2, §3, §4, §5, §6

Data set [5] has as its system Aspergillus niger mixed with Penicillium funiculosum. As to the kind of experiment: Fungal efficacy on dry paint film (Modified ASTM 5590), pool An + Pf. It counts as cell-based. Particulars: for % Inhibition: at the total conc for the same composition. The protocol:
as §1, §4, §5, §6

Data set [6] relates to Ap-Ch. The data set can be described thus: Fungal efficacy on dry paint film (Modified ASTM 5590), pool Ap-Ch. It counts as cell-based, Aureobasidium pullulans + Cladosporium herbarum. As for the experimental part:
as §1, §4, §5, §6

Data set [7] has as its system Aa-Tv. The data set can be described thus: Fungal efficacy on dry paint film (Modified ASTM 5590), pool Aa-Tv. It counts as cell-based, Alternaria alternata + Trichoderma viride. As for the experimental part: as §1, §4, §5, §6
Where [8] appears, read: at the total conc for the same composition.

In the case of `O=C(O)CNCP(=O)(O)O` [glyphosate, N-(phosphonomethyl)glycine], the solubility in water result in data set [1] was “relatively high solubility in water”.
`c1ccc2[nH]c(-c3cscn3)nc2c1` [TBZ, thiabendazole]: the “% Inhibition” value came to 80% in data set [2] (setting [8]); 80% in data set [3] (setting [8]); 80% in data set [4] (setting [8]); 70% in data set [5]; 100% in data set [6] (setting [8]); 0% in data set [7] (setting [8]). The “Total conc (minimum inhibitory concentration chosen for SI)” value in data set [2] (total actives in paint) came out at 2475 pppm; in data set [3] (total actives in paint) it was 1650 pppm; in data set [4] (total actives in paint) it was 3300 pppm; in data set [5] (total actives in paint) it was 2475 pppm; in data set [6] (total actives in paint), 1650 pppm; in data set [7] (total actives in paint) it was 3300 pppm.
With zinc glyphosate, the “% Inhibition” value in data set [5] is recorded as 70%.
